The values below are quoted from earlier work in patent US7759335B2, “Cannabinoid receptor antagonists/inverse agonists useful for treating metabolic disorders, including obesity and diabetes” (Jenrm Discovery, Inc., priority 2008, dated 2010).

For the data set the following is noted: patients with type 2 diabetes not treated with other anti-diabetic medications; after six months of treatment; baseline value 7.9; placebo reduction 0.3%.

For the compound `Cc1c(C(=O)NN2CCCCC2)nn(-c2ccc(Cl)cc2Cl)c1-c1ccc(Cl)cc1` [rimonabant], the HbA1c levels lowered is 0.8%.
